Key:
[1] = tested on: tyrosine kinase activity in cell line lysates; assay: Peptide array profiling of 9 cell line lysates in the presence of MTKI or Tarceva; assay type: biochemical; conditions: GTL16 lysates; 5 μM
Procedure: To test whether other EGFR inhibitors, related to MTKI, such as Tarceva (erlotinib; OSI pharmaceuticals), are also amenable to this response prediction methodology, 9 cell lines were profiled in the presence of MTKI, or Tarceva (5 μM in both cases). […] The value of the previously derived MTKI prediction peptides is illustrated in Tables 6A to C. Based on these peptides also response to Tarceva can be predicted with identical accuracy as for MTKI (and with the same false predictions, in casu H2009 and MOLT4).

[2] = tested on: cMet kinase activity in cell lysates; assay: 140-tyrosine peptide array profiling of cell lysates with cMET inhibitor 605; assay type: biochemical; conditions: responder cell lysates; 1 μM compound
Source text: To examine whether the currently available 140-tyrosine peptide arrays from Pamgene will also detect other kinase activities then those described above, another compound was profiled using the same methodology: this is an exquisitely selective inhibitor of the cMET receptor tyrosine kinase (see US2007 0203136 A1) and with formula: […]
(§1) As shown in Example 7, clear-cut differences in peptide phosphorylation inhibition by 605 could be identified in the responder lysates versus non-responder lysates. Note that the cMet signature peptide set features two peptides derived from Ron, the closest homologue to cMet. […] The 605 signature peptides show no overlap at all with the MTKI signature peptides set, consistent with the absence of any overlap in kinase specificity between MTKI and 605.

[3] = tested on: HGF-induced colony formation; assay: HGF-induced colony formation (responsiveness to 605); assay type: cell-based; set-up: key: R = Responder to cMET; NR = Non-Responder to cMET
Ron kinase = Ron kinase (Homo sapiens, UniProt Q04912); assay: Purified Ron kinase inhibition; assay type: biochemical; conditions: 1 μM
Chain of Ron kinase (Q04912 25-1400): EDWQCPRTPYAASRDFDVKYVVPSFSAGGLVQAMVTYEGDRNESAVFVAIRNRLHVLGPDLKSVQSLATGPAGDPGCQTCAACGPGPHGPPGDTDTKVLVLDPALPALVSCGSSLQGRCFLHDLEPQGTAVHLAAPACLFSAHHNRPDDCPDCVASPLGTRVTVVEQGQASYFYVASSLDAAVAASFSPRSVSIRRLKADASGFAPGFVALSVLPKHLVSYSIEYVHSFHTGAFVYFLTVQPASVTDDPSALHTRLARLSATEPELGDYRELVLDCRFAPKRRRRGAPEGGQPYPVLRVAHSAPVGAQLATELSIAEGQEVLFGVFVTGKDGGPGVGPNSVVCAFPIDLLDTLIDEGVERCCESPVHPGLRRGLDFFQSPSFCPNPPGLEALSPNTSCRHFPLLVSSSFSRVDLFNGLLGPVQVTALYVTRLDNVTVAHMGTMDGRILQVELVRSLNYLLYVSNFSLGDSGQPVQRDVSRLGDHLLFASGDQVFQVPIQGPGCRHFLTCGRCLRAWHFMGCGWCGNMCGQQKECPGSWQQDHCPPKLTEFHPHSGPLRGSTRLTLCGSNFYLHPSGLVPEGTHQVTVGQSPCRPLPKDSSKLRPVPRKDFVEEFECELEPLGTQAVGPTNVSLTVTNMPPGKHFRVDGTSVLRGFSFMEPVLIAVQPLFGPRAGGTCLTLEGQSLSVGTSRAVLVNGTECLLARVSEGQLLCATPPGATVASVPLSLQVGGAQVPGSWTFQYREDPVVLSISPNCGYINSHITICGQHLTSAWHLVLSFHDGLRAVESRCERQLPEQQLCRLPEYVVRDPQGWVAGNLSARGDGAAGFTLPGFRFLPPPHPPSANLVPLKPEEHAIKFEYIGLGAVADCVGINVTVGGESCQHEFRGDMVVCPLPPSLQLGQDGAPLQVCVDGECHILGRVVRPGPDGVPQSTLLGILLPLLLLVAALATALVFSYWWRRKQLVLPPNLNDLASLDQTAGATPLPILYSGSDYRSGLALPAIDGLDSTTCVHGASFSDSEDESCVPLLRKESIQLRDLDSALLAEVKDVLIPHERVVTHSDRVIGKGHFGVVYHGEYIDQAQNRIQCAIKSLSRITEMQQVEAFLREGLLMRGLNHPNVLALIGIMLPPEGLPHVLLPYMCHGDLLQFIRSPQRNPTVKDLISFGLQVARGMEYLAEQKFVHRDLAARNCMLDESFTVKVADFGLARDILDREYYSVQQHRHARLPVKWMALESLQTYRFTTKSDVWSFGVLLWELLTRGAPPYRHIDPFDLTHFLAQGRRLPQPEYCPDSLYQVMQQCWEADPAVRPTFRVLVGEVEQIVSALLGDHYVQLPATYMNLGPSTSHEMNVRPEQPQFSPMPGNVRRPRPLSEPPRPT
Source text: as §1

Compound	activity in lysate inhibition profile compared to MTKI [1]	inhibition of peptide phosphorylation [2]	response status ([3]; A549 cell line)	response status ([3]; Caco2 cell line)	response status ([3]; H322 cell line)	response status ([3]; H441 cell line)	response status ([3]; H1792 cell line)	response status ([3]; H2106 cell line)	response status ([3]; H2122 cell line)	response status ([3]; Kato2 cell line)	response status ([3]; MKN45 cell line)	response status ([3]; N87 cell line)	response status ([3]; SNU5 cell line)	response status ([3]; SNU484 cell line)	response status ([3]; WIDR cell line)	response status ([3]; YKG cell line)	inhibition of purified Ron kinase (Ron kinase)
C#Cc1cccc(Nc2ncnc3cc(OCCOC)c(OCCOC)cc23)c1 [Tarceva, reference compound]	additional activity																
Cn1cc(-c2ccc3nnc(C(F)(F)c4ccc5ncccc5c4)n3n2)cn1 [compound 605]		significant inhibition	NR	NR	NR	R	R	NR	NR	R	R	NR	R	NR	R	NR	does not inhibit

From patent US20100234238A1, “METHOD FOR PROFILING KINASE INHIBITORS” (Janssen Pharmaceutica N V, priority 2006, published 2010)
